Experimental data reported in PubChem BioAssay (NCI).
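Dose response: 5 concentrations. Exposure: 48 h. Format: 96-well plates. Endpoint: linear interpolation; highest concentration if not reached. GI50 = concentration required for 50% inhibition of growth. TGI marks complete inhibition of growth.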

Key:
Experiment in all cases: growth of human tumour cells (NCI), 48 h
[1] = test system: NCI-H460 lung
[2] = test system: SF-295 CNS
[3] = test system: NCI/ADR-RES ovarian
[4] = test system: OVCAR-3 ovarian
[5] = test system: MDA-MB-231 breast
[6] = test system: MCF7 breast
[7] = test system: CCRF-CEM leukemia
[8] = test system: MDA-N

| SMILES | TGI [1] | TGI [2] | TGI [3] | TGI [4] | TGI [5] | TGI [6] | TGI [7] | TGI [8] | GI50 [6] | GI50 [1] | GI50 [7] | GI50 [2] | GI50 [3] | GI50 [4] | GI50 [5] |
| --- | --- | --- | --- | --- | --- | --- | --- | --- | --- | --- | --- | --- | --- | --- | --- |
| C/C(O[Si](C(C)C)(C(C)C)C(C)C)=C(\C)C(=O)N(C)c1ccccc1Cl | > 100 µM | > 100 µM | > 100 µM | > 100 µM | > 100 µM | – | – | – | – | – | – | – | – | – | – |
| O=[N+]([O-])C(C(Cl)=C(Cl)Cl)=C(n1cncn1)n1cncn1 | > 100 µM | > 100 µM | 67 µM | 38.4 µM | 39.3 µM | > 100 µM | 22 µM | – | – | – | – | – | – | – | – |
| O=C1/C(=C/c2ccccc2)CCCc2ccccc21 | 31.4 µM | 35.9 µM | 40.5 µM | 35.2 µM | 39.1 µM | 41.6 µM | 43.6 µM | 36.7 µM | – | – | – | – | – | – | – |
| O=P1(Cc2ccccc2)c2ccccc2-c2ccccc21 | 48.3 µM | 40.5 µM | > 100 µM | > 55.4 µM | > 79.4 µM | > 39.3 µM | > 100 µM | 10.9 µM | – | – | – | – | – | – | – |
| C=C(C)C(=O)OC1C[C@H](COC(C)=O)C2CC=C(CO)C2C2OC(=O)C(=C)[C@H]12 (stereo partly specified) | > 100 µM | > 100 µM | > 100 µM | > 100 µM | > 100 µM | > 100 µM | 31.5 µM | > 100 µM | – | – | – | – | – | – | – |
| C[n+]1ccccc1/C1=c2\cc/c([nH]2)=C(\c2cccc[n+]2C)C2=N/C(=C(/c3cccc[n+]3C)C3C=CC(N3)/C(c3cccc[n+]3C)=C3/C=CC1=N3)C=C2 | > 100 µM | > 100 µM | > 100 µM | > 100 µM | – | > 100 µM | > 100 µM | > 100 µM | – | – | – | – | – | – | – |
| COCOc1cc(OC)ccc1C/C(=N/O)C(=O)OC | > 100 µM | > 100 µM | > 100 µM | > 100 µM | > 100 µM | > 100 µM | > 100 µM | > 100 µM | – | – | – | – | – | – | – |
| O=C(NC1(C(=O)O)CCCC1)c1ccccc1 | > 100 µM | > 100 µM | > 100 µM | > 100 µM | > 100 µM | > 100 µM | > 100 µM | > 100 µM | – | – | – | – | – | – | – |
| O=C1C(Cl)=C(NCCF)C(=O)c2ncccc21 | 3.73 µM | 3.21 µM | – | 5.45 µM | 4 µM | 3.54 µM | 0.806 µM | 0.392 µM | – | – | – | – | – | – | – |
| CN(C)c1ccc(/C=C(\NC(=O)c2ccccc2)C(=O)NC(Cc2c[nH]c3ccccc23)C(=O)O)cc1 (stereo unspecified) | > 100 µM | > 100 µM | > 100 µM | > 100 µM | > 100 µM | > 100 µM | > 100 µM | > 100 µM | – | – | – | – | – | – | – |
| C/C(O)=C(\C=NC(=S)c1ccncc1)C(=O)Nc1ccccc1C | > 100 µM | > 100 µM | > 100 µM | > 100 µM | > 100 µM | > 100 µM | – | > 100 µM | – | – | – | – | – | – | – |
| COC(=O)C1(O)C(c2ccccc2)NC2(C)CCCC21 (stereo unspecified) | – | > 100 µM | > 100 µM | – | > 100 µM | > 100 µM | > 100 µM | > 100 µM | – | – | – | – | – | – | – |
| COc1ccccc1C1C(C#N)=C(N)Oc2cc(O)ccc21 (stereo unspecified) | 58.8 µM | 80.6 µM | 68.2 µM | 51.4 µM | 24.8 µM | 49.7 µM | 29.1 µM | – | 17.7 µM | 20 µM | 12 µM | 16 µM | 8.56 µM | 13 µM | 4.34 µM |
| Cc1cc2nnc(C(N)=O)c(N)c2cc1C | > 100 µM | > 100 µM | > 100 µM | > 100 µM | > 100 µM | > 100 µM | > 100 µM | > 100 µM | – | – | – | – | – | – | – |
| CC(=O)c1c(O)n(-c2ccc(C)cc2)c(=O)c2c(N)n[nH]c12 | > 100 µM | – | > 100 µM | > 100 µM | > 100 µM | > 100 µM | > 100 µM | > 100 µM | – | – | – | – | – | – | – |
| CN(C)N=Nc1ccc2[nH]c(=O)[nH]c2c1 | > 100 µM | > 100 µM | > 100 µM | > 100 µM | > 100 µM | > 100 µM | > 100 µM | > 100 µM | – | – | – | – | – | – | – |
| Cc1ccc(C(=O)N/N=C2/C(=O)c3c4ccccc4cc4cccc2c34)cc1 | > 77.2 µM | 43.2 µM | > 91.2 µM | 66.6 µM | > 100 µM | 11.6 µM | > 100 µM | > 100 µM | – | – | – | – | – | – | – |
| COc1ccc2oc(C(=O)N3CC(CCl)c4ccc(N)cc43)cc2c1 (stereo unspecified) | 1.74 µM | > 100 µM | 0.758 µM | > 100 µM | > 26.7 µM | 3.02 µM | 9.17 µM | 1.82 µM | – | – | – | – | – | – | – |
| O=c1[nH]c(=O)n([C@@H]2O[C@H](CO)[C@@H](O)[C@@H]2F)cc1I | > 100 µM | > 100 µM | > 100 µM | > 100 µM | > 100 µM | > 100 µM | 66.8 µM | > 100 µM | – | – | – | – | – | – | – |
| O=C(Nc1ccc2cc3ccccc3cc2c1)c1cc2c(cc1Cl)Sc1nccn1S2(=O)=O | > 100 µM | > 100 µM | > 100 µM | > 100 µM | 60.1 µM | > 100 µM | – | > 100 µM | – | – | – | – | – | – | – |
| COc1cc(S(=O)(=O)Nc2ccc(-c3csc(N4C(=O)C(Cl)C4c4cccs4)n3)cc2)ccc1Cl (stereo unspecified) | > 100 µM | > 100 µM | > 100 µM | > 100 µM | – | > 100 µM | 35.7 µM | > 100 µM | – | – | – | – | – | – | – |
| CCOC(=O)/C=C(/C(=O)OCC)n1ccc(=O)n(Cc2cnnn2CCCCOC(C)=O)c1=O | > 100 µM | > 100 µM | > 100 µM | > 100 µM | > 100 µM | > 100 µM | 30.9 µM | > 100 µM | – | – | – | – | – | – | – |
| N#Cc1c(-c2ccc([N+](=O)[O-])cc2)cc(-c2ccc(Nc3ccnc4cc(Cl)ccc34)cc2)nc1N | > 73.2 µM | 37.6 µM | 26.8 µM | 15.8 µM | 33.7 µM | 4.73 µM | 3.8 µM | 17.1 µM | – | – | – | – | – | – | – |
| C=CCn1c(-c2ccc(Cl)cc2)csc1=Nc1ccccc1OC | > 100 µM | > 79.8 µM | > 91.6 µM | > 100 µM | > 100 µM | > 100 µM | > 100 µM | > 59.6 µM | – | – | – | – | – | – | – |
